CS(N)(=O)=O
Details | solubility (mole fraction)
in ethanol, 283.13 K | 0.0265
in ethanol, 288.18 K | 0.0338
in ethanol, 293.14 K | 0.0412
in ethanol, 298.17 K | 0.0484
in ethanol, 302.16 K | 0.0614
in ethanol, 308.16 K | 0.0792
in ethanol, 313.06 K | 0.1
in ethanol, 318.07 K | 0.132
in ethanol, 323.16 K | 0.181
in ethyl acetate, 283.26 K | 0.0297
in ethyl acetate, 288.16 K | 0.0329
in ethyl acetate, 293.2 K | 0.0373
in ethyl acetate, 298.1 K | 0.0419
in ethyl acetate, 303.18 K | 0.0458
in ethyl acetate, 308.24 K | 0.0507
in ethyl acetate, 313.17 K | 0.0565
in ethyl acetate, 318.07 K | 0.0627
in ethyl acetate, 323.16 K | 0.0684
in isobutanol, 283.2 K | 0.0117
in isobutanol, 288.14 K | 0.0145
in isobutanol, 293.06 K | 0.0174
in isobutanol, 298.36 K | 0.0216
in isobutanol, 303.13 K | 0.026
in isobutanol, 308.14 K | 0.0309
in isobutanol, 313.04 K | 0.0384
in isobutanol, 318.16 K | 0.0481
in isobutanol, 323.04 K | 0.0592
in isopentanol, 283.16 K | 0.00502
in isopentanol, 288.14 K | 0.00747
in isopentanol, 293.16 K | 0.0108
in isopentanol, 298.17 K | 0.0138
in isopentanol, 303.05 K | 0.018
in isopentanol, 308.06 K | 0.0228
in isopentanol, 313.15 K | 0.0288
in isopropanol, 283.06 K | 0.0139
in isopropanol, 288.17 K | 0.0178
in isopropanol, 293.14 K | 0.0221
in isopropanol, 298.08 K | 0.0277
in isopropanol, 303.06 K | 0.0333
in isopropanol, 308.14 K | 0.044
in isopropanol, 313.14 K | 0.0556
in isopropanol, 318.16 K | 0.0704
in isopropanol, 323.04 K | 0.0917
in isopropyl acetate, 283.27 K | 0.0099
in isopropyl acetate, 288.14 K | 0.0112
in isopropyl acetate, 293.16 K | 0.0127
in isopropyl acetate, 298.34 K | 0.0148
in isopropyl acetate, 303.13 K | 0.0169
in isopropyl acetate, 308.1 K | 0.0195
in isopropyl acetate, 313.3 K | 0.0219
in isopropyl acetate, 318.22 K | 0.0251
in isopropyl acetate, 323.27 K | 0.0294
in methanol, 283.27 K | 0.0738
in methanol, 288.1 K | 0.0884
in methanol, 293.2 K | 0.108
in methanol, 298 K | 0.133
in methanol, 303.3 K | 0.163
in methanol, 308.36 K | 0.2
in methanol, 313.13 K | 0.243
in methanol, 318.1 K | 0.286
in methanol, 322.2 K | 0.33
in methyl propionate, 283.27 K | 0.0251
in methyl propionate, 288.27 K | 0.026
in methyl propionate, 293.06 K | 0.0291
in methyl propionate, 298.14 K | 0.0324
in methyl propionate, 303.36 K | 0.036
in n-butanol, 283.1 K | 0.0117
in n-butanol, 288.2 K | 0.0131
in n-butanol, 293.18 K | 0.015
in n-butanol, 298.16 K | 0.0172
in n-butanol, 303.26 K | 0.0218
in n-butanol, 308.06 K | 0.027
in n-pentanol, 283.14 K | 0.00546
in n-pentanol, 288.13 K | 0.00713
in n-pentanol, 293.14 K | 0.00998
in n-pentanol, 298.12 K | 0.0156
in n-pentanol, 303.06 K | 0.0219
in n-propanol, 283.16 K | 0.0125
in n-propanol, 288.14 K | 0.0153
in n-propanol, 293.08 K | 0.0185
in n-propanol, 298.14 K | 0.0213
in n-propanol, 303.12 K | 0.0296
in n-propanol, 308.24 K | 0.0375
in n-propanol, 313.18 K | 0.0471
in n-propanol, 318.24 K | 0.0608
in n-propanol, 323.24 K | 0.08
in n-propyl acetate, 283.07 K | 0.0114
in n-propyl acetate, 288.13 K | 0.0125
in n-propyl acetate, 293.26 K | 0.0141
in n-propyl acetate, 298.04 K | 0.0163
in n-propyl acetate, 303.14 K | 0.0185
in n-propyl acetate, 308.04 K | 0.0214
in n-propyl acetate, 313 K | 0.0243
in n-propyl acetate, 318.07 K | 0.028
in n-propyl acetate, 323.17 K | 0.0322
in sec-butanol, 283.3 K | 0.00628
in sec-butanol, 288.14 K | 0.0112
in sec-butanol, 293.13 K | 0.0166
in sec-butanol, 298.06 K | 0.0224
in sec-butanol, 303.1 K | 0.0284
in sec-butanol, 308.26 K | 0.036
in sec-butanol, 313.06 K | 0.0459
